pIC50: −log10 of the molar value.
How the values were obtained:
MM2-CK1ε = test: phosphopeptide mapping of MM2-CK1ε in N2a cells; format: cell-based; conditions: DHPG 2 min
Experimental: Twenty-four hours after transfecting N2a cells with CK1ε expression plasmids, cells were incubated in 200 μCi/ml (NEN) ^32P-inorganic phosphate and phosphate-free serum-free DMEM for 2 h. […] Cells were treated with DHPG for various periods of time as indicated, harvested by lysis in RIPA buffer and clarified by centrifugation at 14,000×g for 10 min. Soluble extracts containing HA- or Myc-tagged proteins were immunoprecipitated with 12CA5 or 9E10 monoclonal antibody and protein A-agarose. The immunoprecipitates were eluted from the protein A-agarose and separated by SDS-PAGE on 10% gel. Proteins were stained briefly with Coomassie Brilliant Blue, the gels were dried, and the labeled proteins were visualized by autoradiography.
Radiolabeled protein bands were excised, rehydrated, de-stained and dried in a speedvac. The gel slices were minced and rehydrated in 75 μg/ml TPCK/trypsin in 50 mM NH4CO3H (1 ml final volume) for 24 h at 37° C. The supernatant was removed from the gel slices and then lyophilized to dryness. Recovery of tryptic phosphopeptides was determined by Cerenkov counting. The two-dimensional peptide mapping method was used to separate phosphopeptides (23). Lyophilized tryptic peptides were suspended in 10 μl of electrophoresis buffer (10% acetic acid and 1% pyridine, pH 3.5) and spotted onto thin-layer cellulose plates (20×20 cm, Analtech). […]

Cdk5/p25 = Cdk5/p25 (Homo sapiens, UniProt Q00535); test: in vitro inhibitory potency of CKI-7 towards Cdk5/p25; format: biochemical
Cdk5/p25, sequence (Q00535 whole entry, species assumed, the tested form may be a part): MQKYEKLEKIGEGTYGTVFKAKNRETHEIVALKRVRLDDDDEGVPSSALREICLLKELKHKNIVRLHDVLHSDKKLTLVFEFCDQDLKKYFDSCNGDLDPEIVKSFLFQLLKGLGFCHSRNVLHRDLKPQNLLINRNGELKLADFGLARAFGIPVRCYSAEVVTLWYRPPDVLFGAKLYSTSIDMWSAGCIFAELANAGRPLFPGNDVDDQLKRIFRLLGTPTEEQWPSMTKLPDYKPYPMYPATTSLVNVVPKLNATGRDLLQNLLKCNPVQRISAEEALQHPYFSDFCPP
Cdk5/p25, sequence (Q15078 99-307 partner limits assumed, species assumed): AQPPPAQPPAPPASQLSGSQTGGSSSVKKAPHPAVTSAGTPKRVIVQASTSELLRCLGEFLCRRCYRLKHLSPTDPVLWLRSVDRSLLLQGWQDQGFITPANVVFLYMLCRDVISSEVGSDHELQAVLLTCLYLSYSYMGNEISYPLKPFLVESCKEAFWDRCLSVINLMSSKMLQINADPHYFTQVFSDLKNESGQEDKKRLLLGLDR
Experimental: (§1) CKI may also regulate Cdk5 kinase activity in response to mGluR receptor activation, or vice versa. To examine these possibilities, experiments were performed with a CKI inhibitor, CKI-7. The crystal structure of the catalytic domain of casein kinase I complexed with CKI-7 provided evidence that CKI-7 achieves its selectivity for CKI by hydrophobic contacts and hydrogen bonding with the isoquinoline ring (Xu, R. M. et al. 1996. Proc. Natl. Acad. Sci. USA 93:6308–6313). In in vitro studies, the inhibitory potency (IC50 values) for CKI-7 towards CKI and Cdk5/p25 was determined.

CKI = test: in vitro inhibitory potency of CKI-7 towards CKI; format: biochemical
Experimental: as §1

SMILES: N[C@H](C(=O)O)c1cc(O)cc(O)c1 [DHPG, (S)-3,5-Dihydroxyphenylglycine]
- effect on phosphorylation of MM2-CK1ε (MM2-CK1ε): no effect

SMILES: NCCNS(=O)(=O)c1ccc(Cl)c2ccncc12 [CKI-7]
- pIC50 (Cdk5/p25): 3.70
- pIC50 (CKI): 4.82
